Data from article PMC4443670, “The C-terminal region of the motor protein MCAK controls its structure and activity through a conformational switch” (eLife, 2015).
Entries after “also recorded” stand apart in the source; their conditions may differ. Ends that are not written are not given here.

Columns and labels:
MCAK motor domain [1] = molecular target: T1, MCAK motor domain (Homo sapiens, UniProt Q99661); assay: X-ray crystal structure of motor domain with CT peptide (PDB 4UBF)
T1 construct: His-MCAK (183–583, M) and His-MCAK (1–583, NM) were subcloned in pET3aTr vector; made in house; host or cells: E. coli BL21(DE3) Codon plus
Method: 1 mM MCAK motor domain (PDB:2HEH, Addgene, Cambridge MA, USA) was incubated with the CT peptide 709[…]720 (China peptides Co, Ltd, China) in a ratio of 1:2 for 1 hr at 4°C before setting up crystallization trials. Elongated rectangular crystals appeared by vapor diffusion after two days in sitting drops using 24% wt/vol PEG 1500 and 20% vol/vol Glycerol as a precipitant. Crystals were grown in MRC 2 Well Crystallization Plate (Hampton Research, Aliso Viejo, CA, USA) at 19°C. Crystals were cryoprotected in a solution containing 28% wt/vol PEG 1500 and 30% vol/vol Glycerol and flash-frozen in dry liquid nitrogen.
Diffraction data were recorded at Diamond Light Source on beamline ID24 at 100 K. Data were processed using XDS package ([Kabsch, 2010]) and SCALA operated through the CCP4 suite GUI ([Collaborative Computational Project, Number 4, 1994]). The structure of the MCAK motor-tail complex was solved by molecular replacement using the program MOLREP. The MCAK motor domain structure (PDB code: 2HEH) was used as a search model. Structure refinement was performed using Refmac5 and Phenix ([Adams et al., 2010]). Figures were prepared using PyMOL ([Delano, 2002]).

[2] = system: taxol-stabilized microtubules; assay: Microtubule cosedimentation assay, untreated microtubules; type: binding; conditions: for detection of CT domain in microtubule-bound pellet / supernatant: western blot, 50 nM motor domain, with and without DTT
Method: Full-length MCAK complex was diluted in S buffer (50 mM NaCl, 20 mM Hepes pH 7.0) to 50 nM, in absence of nucleotide to prevent MCAK-dependent microtubule depolymerisation. To assemble an MCAK motor-CT domain complex, 50 nM of the motor domain and 100 nM of the CT domain were used. Microtubule binding assays were performed as described ([Cheeseman et al., 2006]) using equal volumes of taxol-stabilized microtubules in BRB80 and MCAK in S buffer. MCAK was quantified using anti-MCAK antibody against the C terminus of MCAK (709[…]720), generated by GL Biochem (Shangai) Ltd (China) or anti-His antibody to probe for the motor domain alone (GE Healthcare Lifesciences, UK). The data from at least three independent experiments were fitted to a modified Hill equation to determine the apparent Kd.

[3] = system: MCAK motor domain (Cys287); assay: Covalent (disulphide) attachment of the CT domain to the motor domain; type: binding, human
Method: The GST-CTE712C and CTE712C domains were cross-linked to the motor domain by incubating them with the motor domain in a buffer containing 100 mM HEPES, pH 7.4, 150 mM NaCl but lacking DTT for 1 hr at 4°C. As a negative control the motor domain and the CTE712C domain were incubated in the identical buffer, supplemented with 5 mM DTT.

[4] = system: taxol-stabilized microtubules; assay: Microtubule depolymerisation assay; type: biochemical
Method: Microtubule depolymerization assays were performed essentially as described previously ([Hertzer et al., 2006]). MCAK was diluted to 100 nM in S-buffer containing 1 mM DTT and 2 mM Mg-ATP. For depolymerization assays of the motor domain in presence of the CT domain after GST cleavage and removal, 50 nM of motor domain and 100 nM of the CT domain were used. The microtubule depolymerization assay was initiated by the addition of 2 μM taxol-stabilized microtubules to a reaction buffer containing MCAK. Reactions were incubated at room temperature with increasing times and followed by centrifugation to separate microtubules from free tubulin. The data are represented as mean ± SD from three independent experiments.

MCAK motor domain [5] = molecular target: T1, MCAK motor domain; assay: Analytical size-exclusion chromatography (motor-CT complex formation); type: binding; conditions: Superdex 75 or Superose 6 10/300 GL; Coomassie-stained gel of fractions
Source text: Full-length MCAK is a dimer in solution ([Maney et al., 2001]). Therefore, we sought to test whether the CT domain interacts with one or two motor domains. To define the stoichiometry of this interaction, we subjected the complex to analytical size-exclusion chromatography. The motor domain alone behaves as a monomer and eluted with an apparent size of ∼45 kDa. […] Using SDS-PAGE analysis, we confirmed that the shift to a larger complex was due to the interaction of the motor domain with the CT domain (Figure 1C, bottom). […] The predicted masses for complexes of one and two CT domains bound to two motor domains are ∼94.2 and 97.7 kDa, respectively. […] Since the CT domain is unlikely to dimerize alone (Figure 1B), we conclude that the MCAK CT domain induces the dimerization of the motor domains cooperatively.
Protein expression was induced by addition of 0.5 mM IPTG to BL21(DE3) Codon plus cells transformed with respective constructs at OD600 of 0.7–0.8 for 16 hr at 18°C. Cells were lysed by sonication in lysis buffer (50 mM Hepes, pH 7.4, 200 mM NaCl, 1 mM MgCl2, 1 mM PMSF, 1 mg/ml DNaseI, 2 mg/ml lysozyme, 10 mM Imidazole) and clarified at 20,000 rpm for 1 hr at 4°C. His-tagged and GST-tagged proteins were subsequently purified using Ni-NTA–agarose beads and glutathione-sepharose beads, respectively (GE Healthcare Life Sciences, UK)) according to the manufacturer's guidelines. MCAK constructs containing the motor domain were eluted with elution buffer (50 mM Hepes, pH 7.4, 200 mM NaCl, 1 mM MgCl2, 1 mM ATP, and 300 mM imidazole). Cleavage of the GST tag was performed using the GST-3C protease overnight at 4°C. […] Protein concentrations were determined with a combination of Bradford protein assays and densitometry of Coomassie-stained gels relative to a BSA standard. […]

GST-CT domain = assay: Resin-based binding assay, CT domain self-interaction (CT domain to GST-CT); design: species or system human; conditions: GST-CT on glutathione agarose; GST-cleaved CT domain
Source text: Kinesin-1 is regulated through an auto-inhibitory mechanism whereby one C-terminal tail binds at the interface of the two motors, such that it creates a second point of attachment in addition to the coiled coil region. This limits the head movement of one kinesin with respect to the other ([Stock et al., 1999]; [Hackney and Stock, 2000]; [Kaan et al., 2011]). We sought to test whether the C-terminal tail domain of MCAK, which has been proposed to regulate MCAK activity ([Moore and Wordeman, 2004]), was sufficient to interact with the motor domain. To do this, we expressed the N-terminal and motor region (residues 1–583, termed NM) or the motor region of MCAK along with the neck linker region (residues 181–583, termed M) as His-tagged proteins, and the C-terminal MCAK tail (residues 700–725, termed CT domain) as a GST fusion protein ([Moore and Wordeman, 2004]; [Hertzer et al., 2006]) (Figure 1A). […] We cannot however exclude a very tight interaction between two CT domains. […]
Protein expression was induced by addition of 0.5 mM IPTG to BL21(DE3) Codon plus cells transformed with respective constructs at OD600 of 0.7–0.8 for 16 hr at 18°C. […] Protein concentrations were determined with a combination of Bradford protein assays and densitometry of Coomassie-stained gels relative to a BSA standard. […]

T1 sequence (Q99661 183-583): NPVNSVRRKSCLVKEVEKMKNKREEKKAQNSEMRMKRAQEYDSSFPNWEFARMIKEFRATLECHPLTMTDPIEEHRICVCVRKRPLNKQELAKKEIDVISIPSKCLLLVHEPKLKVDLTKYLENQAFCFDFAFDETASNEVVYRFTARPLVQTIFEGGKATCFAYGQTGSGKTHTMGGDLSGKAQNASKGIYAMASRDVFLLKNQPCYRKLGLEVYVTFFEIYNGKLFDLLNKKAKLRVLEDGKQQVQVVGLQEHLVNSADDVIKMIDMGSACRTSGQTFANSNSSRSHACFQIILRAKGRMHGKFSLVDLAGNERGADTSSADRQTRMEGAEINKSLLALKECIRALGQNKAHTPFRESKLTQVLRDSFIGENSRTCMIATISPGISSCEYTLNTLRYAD

Row | Substance | binding mode in crystal structure (MCAK motor domain [1]; 3 Å, peptide 709QLEEQASRQISS720) | reduction of fraction of MCAK motor bound to microtubules ([2]; 50 nM motor domain + CTE712C domain, oxidizing conditions (no DTT), absence of nucleotide) [%] | detection of CT domain in microtubule-bound pellet / supernatant [2] | binding to MCAK motor, presence of DTT ([3]; 5 mM DTT) | non-covalently bound MCAK fraction ([3]; motor-CTE712C domain complex, absence of DTT, Figure 6—figure supplement 1F) | formation of covalent complex with motor ([3]; oxidizing conditions (without DTT), 100 mM HEPES pH 7.4, 150 mM NaCl, 1 hr at 4°C) | microtubule depolymerase activity of motor with CTE712C domain, absence of DTT ([4]; 50 nM motor domain, 100 nM CTE712C domain, 2 μM taxol-stabilized microtubules, no DTT, apparent activity) | microtubule depolymerase activity of motor with CTE712C domain, presence of DTT ([4]; 50 nM motor domain, 100 nM CTE712C domain, 2 μM taxol-stabilized microtubules, with DTT) | specific depolymerase activity of covalent MCAK motor-CTE712C complex ([4]; calculated by subtracting activity of motor alone (~50% of population)) | effect of free CT domain on MCAKS715E binding to microtubules ([2]; 100 nM full-length MCAKS715E, 2 μM taxol-stabilized microtubules, increasing free CT or CTS715E, repeated three times) | binding to / co-migration with motor domain by gel filtration (MCAK motor domain [5]) | interaction of CT domain with itself (GST-CT domain) | RMSD of overall structure of MCAK on CT domain binding (MCAK motor domain [1]; 3 Å crystal structure) [Å]
1 | 709QLEEQASRQISS720 [chemically synthesized peptide corresponding to the CT domain] | a single CT domain binds to both motor domains, close to their neck linker regions | – | – | – | – | – | – | – | – | – | – | – | –
2 | CTE712C: CT domain with Glu712 mutated to cysteine, forms disulphide bridge with motor Cys287 (VIKALRLAMQLECQASRQISSKKRPQ; also: Cys712 forms disulfide with motor Cys287; UniProt Q99661 700-725, looked up, fragment E712C) | – | ~50 | did not detect | did not bind the MCAK motor | 45–50% | formed a covalent complex | displayed reduced depolymerase activity | the depolymerase activity was similar to that of the wild type MCAK motor alone | strongly inhibits the depolymerase activity of MCAK | – | – | – | –
3 | GPLGSIKALRLAMQLEEQASRQISSKKRPQ-OH [CT domain] | – | – | did not detect | – | – | – | – | – | – | decreased the affinity of MCAKS715E for microtubules | bound the motor domain independently of the GST; also recorded: the elution peak shifted to an earlier fraction, suggesting dimerization of the MCAK motor | unable to interact with itself through dimerization | 0.863
